Assay results reported in US20180246095A1, “COMPOSITIONS AND METHODS FOR DIAGNOSING AND TREATING LYME DISEASE” (priority 2015, published 2018).

Test system: B. burgdorferi B31
Experiment: RNA-Seq gene expression profile of B. burgdorferi persisters that survived antibiotic treatment, compared with drug free control
Format: cell-based, Borrelia burgdorferi
Protocol: RNA Sequencing (RNA-Seq) was performed to determine the gene expression profile of B. burgdorferi persisters that survived antibiotic treatment using next generation sequencing to shed light on the mechanisms of B. burgdorferi persistence. B. burgdorferi B31 cultures were grown for 5 days to 1×10^7 spirochetes/ml in BSK-H medium followed by treatment with 50 μg/ml doxycycline or 50 μg/ml amoxicillin for 6 days. Triplicate biological samples were used for each group. The total RNA was extracted and ribosomal RNA was removed prior to preparation of cDNA libraries for Illumina sequencing. […] The RNA-Seq data was analyzed by BLAST analysis and mapped to KEGG pathways.

`CC1(C)S[C@@H]2[C@H](NC(=O)[C@H](N)c3ccc(O)cc3)C(=O)N2[C@H]1C(=O)O` [Amo] was tested, and the “Expression predicted RNA antisense: BB_0034” value was 64256, the “Expression predicted RNA antisense: BB_0147” value was 71642 and the “Expression predicted RNA antisense: BB_0269” value was 39823. For the same molecule, the “Expression predicted RNA antisense: BB_0465” value was 29768, the “Expression predicted RNA antisense: BB_0559” value was 39487 and the “Expression predicted RNA antisense: BB_0631” value was 35398. For the same molecule, the “Expression predicted RNA antisense: BB_A59” value was 70553, the “Expression predicted RNA antisense: BB_B22” value was 44966 and the “Expression predicted RNA antisense: fusA” value was 45574. For the same molecule, the “Expression predicted RNA antisense: lp6.6” value was 140114, the “Expression predicted RNA antisense: napA” value was 19231 and the “Expression predicted RNA antisense: ospA ospB” value was 102443. For the same molecule, the “Expression predicted RNA antisense: rpsM” value was 33897, the “Expression predicted RNA antisense: tRNA-Gln-1 BB_0786” value was 25214 and the “Expression 5S_rrlB BB_r03” value (5S ribosomal RNA) was 0. The “Expression lp6.6 BB_A62” value (6.6 kDa lipoprotein) was 115, the “Expression 23S_rrlA BB_r02” value (23S ribosomal RNA) was 3005 and the “Expression 23S_rrlB BB_r04” value (23S ribosomal RNA) was 3039. The “Expression rpsH BB_0492” value (30S ribosomal protein S8) was 14, the “Expression rpsI BB_0338” value (30S ribosomal protein S9) was 66 and the “Expression rpsQ BB_0487” value (30S ribosomal protein S17) was 2. The “Expression rpsU BB_0256” value (30S ribosomal protein S21) was 34, the “Expression rplI BB_0112” value (50S ribosomal protein L9) was 23 and the “Expression rplM BB_0339” value (50S ribosomal protein L13) was 21. For the same molecule, the “Expression rplQ BB_0503” value (50S ribosomal protein L17) was 17, the “Expression rplX BB_0489” value (50S ribosomal protein L24) was 6 and the “Expression rpmC BB_0486” value (50S ribosomal protein L29) was 0. The “Expression rpmE BB_0229” value (50S ribosomal protein L31) was 52, the “Expression rpmF BB_0703” value (50S ribosomal protein L32) was 28 and the “Expression rpmJ BB_0499” value (50S ribosomal protein L36) was 14. The “Expression tRNA-Ala-1 BB_t05” value (Ala tRNA) was 0, the “Expression BB_t21” value (Arg tRNA) was 0 and the “Expression tRNA-Asn-1 BB_t11” value (Asn tRNA) was 26. The “Expression tRNA-Asp-1 BB_t12” value (Asp tRNA) was 0, the “Expression bdrH BB_R27” value (BdrH) was 15 and the “Expression bdrK BB_M34” value (BdrK) was 0. The “Expression bdrR BB_N27” value (BdrR protein) was 0, the “Expression erpK BB_M38” value (ErpK protein) was 0 and the “Expression thyX BB_A76” value (FAD-dependent thymidylate synthase) was 3. The “Expression tRNA-Gln-1 BB_t18” value (Gln tRNA) was 0, the “Expression BB_t25” value (Gly tRNA) was 1187 and the “Expression BB_0087” value (L-lactate dehydrogenase) was 48. The “Expression tRNA-Leu-4 BB_t17” value (Leu tRNA) was 15, the “Expression BB_t23” value (Lys tRNA) was 0 and the “Expression BB_0262” value (M23 peptidase domain-containing protein) was 145. The “Expression BB_t28” value (Met tRNA) was 0, the “Expression BB_A64” value (P35 antigen) was 9453 and the “Expression BB_P32” value (PF-32 protein) was 15. For the same molecule, the “Expression BB_M33” value (PF-49 protein) was 0, the “Expression BB_P33” value (PF-49 protein) was 0 and the “Expression BB_0559” value (PTS system glucose-specific transporter subunit IIA) was 177. The “Expression BB_t30” value (Phe tRNA) was 0, the “Expression BB_F03” value (RepU) was 0 and the “Expression BB_t20” value (Ser tRNA) was 7. The “Expression tRNA-Ser-3 BB_t06” value (Ser tRNA) was 0, the “Expression smpB BB_0033” value (SsrA-binding protein) was 176 and the “Expression BB_t33” value (Thr tRNA) was 11. The “Expression murB BB_0598” value (UDP-N-acetylenolpyruvoylglucosamine reductase) was 249, the “Expression BB_0090” value (V-type ATP synthase subunit K) was 1 and the “Expression BB_H33” value (adenine deaminase) was 2. The “Expression BB_H32” value (antigen P35) was 5, the “Expression lnt BB_0237” value (apolipoprotein N-acyltransferase) was 2060 and the “Expression BB_0582” value (carboxypeptidase) was 96. The “Expression cheR BB_0040” value (chemotaxis protein methyltransferase) was 233, the “Expression BB_H06” value (complement regulator-acquiring surface protein) was 10 and the “Expression cdd BB_0618” value (cytidine deaminase) was 267. For the same molecule, the “Expression flgB BB_0294” value (flagellar basal body rod protein FlgB) was 5, the “Expression fliL BB_0279” value (flagellar basal body-associated protein FliL) was 6 and the “Expression BB_0287” value (flagellar protein FlbA) was 0. The “Expression BB_0147” value (flagellin) was 73, the “Expression BB_0138” value (gene BB_0138, hypothetical protein) was 0 and the “Expression BB_0305” value (gene BB_0305, hypothetical protein) was 0. For the same molecule, the “Expression BB_0321” value (gene BB_0321, hypothetical protein) was 4, the “Expression BB_A21” value (gene BB_A21, PF-49 protein) was 1 and the “Expression BB_E09” value (gene BB_E09, protein p23) was 0. For the same molecule, the “Expression BB_E16” value (gene BB_E16, hypothetical protein) was 0, the “Expression BB_E17” value (gene BB_E17, hypothetical protein) was 0 and the “Expression BB_E18” value (gene BB_E18, hypothetical protein) was 0. For the same molecule, the “Expression BB_E19” value (gene BB_E19, hypothetical protein) was 0, the “Expression BB_E20” value (gene BB_E20, hypothetical protein) was 0 and the “Expression BB_E21” value (gene BB_E21, hypothetical protein) was 0. For the same molecule, the “Expression BB_E22” value (gene BB_E22, pyrazinamidase/nicotinamidase PncA) was 0, the “Expression BB_E31” value (gene BB_E31, antigen, P35, putative) was 0 and the “Expression BB_F01” value (gene BB_F01, hypothetical protein) was 0. For the same molecule, the “Expression BB_F02” value (gene BB_F02, hypothetical protein) was 0, the “Expression BB_F06” value (gene BB_F06, hypothetical protein) was 0 and the “Expression BB_F08” value (gene BB_F08, hypothetical protein) was 0. For the same molecule, the “Expression BB_F14” value (gene BB_F14, hypothetical protein) was 0, the “Expression BB_F17” value (gene BB_F17, putative transmembrane protein) was 0 and the “Expression BB_F20” value (gene BB_F20, BBF20) was 0. For the same molecule, the “Expression BB_F23” value (gene BB_F23, PF49) was 0, the “Expression BB_F24” value (gene BB_F24, PF32) was 0 and the “Expression BB_F25” value (gene BB_F25, hypothetical protein) was 0. For the same molecule, the “Expression BB_F26” value (gene BB_F26, hypothetical protein) was 0, the “Expression BB_F0034” value (gene BB_F0034, hypothetical protein) was 0 and the “Expression BB_F0039” value (gene BB_F0039, hypothetical protein) was 0. For the same molecule, the “Expression BB_F0040” value (gene BB_F0040, hypothetical protein) was 0, the “Expression BB_F0041” value (gene BB_F0041, outer surface protein VlsE1) was 0 and the “Expression BB_I01” value (gene BB_I01, hypothetical protein) was 0. The “Expression BB_I02” value (gene BB_I02, hypothetical protein) was 0, the “Expression BB_I06” value (gene BB_I06, MTA/SAH nucleosidase) was 0 and the “Expression BB_I12” value (gene BB_I12, hypothetical protein) was 0. The “Expression BB_I15” value (gene BB_I15, virulence associated lipoprotein) was 0, the “Expression BB_I18” value (gene BB_I18, hypothetical protein) was 0 and the “Expression BB_I19” value (gene BB_I19, hypothetical protein) was 0. For the same molecule, the “Expression BB_I20” value (gene BB_I20, hypothetical protein) was 0, the “Expression BB_I21” value (gene BB_I21, PF-32 protein) was 0 and the “Expression BB_I22” value (gene BB_I22, PF-49 protein) was 0. For the same molecule, the “Expression BB_I26” value (gene BB_I26, multidrug-efflux transporter) was 0, the “Expression BB_I29” value (gene BB_I29, virulence associated lipoprotein) was 0 and the “Expression BB_I34” value (gene BB_I34, virulence associated lipoprotein) was 0. For the same molecule, the “Expression BB_I36” value (gene BB_I36, antigen P35) was 0, the “Expression BB_I38” value (gene BB_I38, surface antigen) was 0 and the “Expression BB_I41” value (gene BB_I41, hypothetical protein) was 0. The “Expression BB_I42” value (gene BB_I42, outer membrane protein) was 0, the “Expression BB_J42” value (gene BB_J42, hypothetical protein) was 0 and the “Expression BB_J0058” value (gene BB_J0058, hypothetical protein) was 0. The “Expression BB_K01” value (gene BB_K01, lipoprotein) was 0, the “Expression BB_K07” value (gene BB_K07, lipoprotein) was 0 and the “Expression BB_K09” value (gene BB_K09, hypothetical protein) was 0. For the same molecule, the “Expression BB_K13” value (gene BB_K13, hypothetical protein) was 0, the “Expression BB_K15” value (gene BB_K15, antigen P35) was 0 and the “Expression BB_K17” value (gene BB_K17, adenine deaminase) was 0. The “Expression BB_K19” value (gene BB_K19, lipoprotein) was 0, the “Expression BB_K21” value (gene BB_K21, PF-32 protein) was 0 and the “Expression BB_K22” value (gene BB_K22, hypothetical protein) was 0. For the same molecule, the “Expression BB_K23” value (gene BB_K23, hypothetical protein) was 0, the “Expression BB_K24” value (gene BB_K24, PF-49 protein) was 0 and the “Expression BB_K32” value (gene BB_K32, fibronectin-binding protein) was 0. The “Expression BB_K33” value (gene BB_K33, hypothetical protein) was 0, the “Expression BB_K34” value (gene BB_K34, hypothetical protein) was 0 and the “Expression BB_K35” value (gene BB_K35, hypothetical protein) was 0. For the same molecule, the “Expression BB_K40” value (gene BB_K40, hypothetical protein) was 0, the “Expression BB_K41” value (gene BB_K41, hypothetical protein) was 0 and the “Expression BB_K42” value (gene BB_K42, hypothetical protein) was 0. For the same molecule, the “Expression BB_K45” value (gene BB_K45, immunogenic protein P37) was 0, the “Expression BB_K47” value (gene BB_K47, hypothetical protein) was 0 and the “Expression BB_K48” value (gene BB_K48, immunogenic protein P37) was 0. The “Expression BB_K49” value (gene BB_K49, hypothetical protein) was 0, the “Expression BB_K50” value (gene BB_K50, immunogenic protein P37) was 0 and the “Expression BB_K52” value (gene BB_K52, lipoprotein) was 0. For the same molecule, the “Expression BB_K53” value (gene BB_K53, outer membrane protein) was 0, the “Expression BB_K54” value (gene BB_K54, hypothetical protein) was 0 and the “Expression BB_K0058” value (gene BB_K0058, hypothetical protein) was 0. The “Expression BB_K0059” value (gene BB_K0059, hypothetical protein) was 0, the “Expression BB_L15” value (gene BB_L15, hypothetical protein) was 0 and the “Expression BB_L16” value (gene BB_L16, hypothetical protein) was 0. For the same molecule, the “Expression BB_L17” value (gene BB_L17, hypothetical protein) was 0, the “Expression BB_L18” value (gene BB_L18, hypothetical protein) was 0 and the “Expression BB_L21” value (gene BB_L21, hypothetical protein) was 0. The “Expression BB_L22” value (gene BB_L22, hypothetical protein) was 0, the “Expression BB_L29” value (gene BB_L29, hypothetical protein) was 0 and the “Expression BB_L30” value (gene BB_L30, hypothetical protein) was 1. The “Expression BB_L31” value (gene BB_L31, hypothetical protein) was 0, the “Expression BB_L32” value (gene BB_L32, PF-32 protein) was 0 and the “Expression BB_N08” value (gene BB_N08, hypothetical protein) was 0. The “Expression BB_N33” value (gene BB_N33, PF-49 protein) was 1, the “Expression BB_Q03” value (gene BB_Q03, outer membrane protein) was 0 and the “Expression BB_Q05” value (gene BB_Q05, antigen, P35) was 0. The “Expression BB_Q07” value (gene BB_Q07, plasmid partition protein) was 0, the “Expression BB_Q08” value (gene BB_Q08, PF-32 protein) was 0 and the “Expression BB_Q09” value (gene BB_Q09, hypothetical protein) was 0. For the same molecule, the “Expression BB_Q40” value (gene BB_Q40, PF-32 protein) was 0, the “Expression BB_Q48” value (gene BB_Q48, hypothetical protein) was 0 and the “Expression BB_Q49” value (gene BB_Q49, hypothetical protein) was 0. The “Expression BB_Q67” value (gene BB_Q67, adenine specific DNA methyltransferase) was 0, the “Expression BB_Q89” value (gene BB_Q89, lipoprotein) was 5 and the “Expression BB_T01” value (gene BB_T01, hypothetical protein) was 0. For the same molecule, the “Expression BB_T02” value (gene BB_T02, hypothetical protein) was 0, the “Expression BB_T03” value (gene BB_T03, hypothetical protein) was 0 and the “Expression BB_T04” value (gene BB_T04, hypothetical protein) was 0. The “Expression BB_T06” value (gene BB_T06, Sua5/YciO/YrdC/YwlC family protein) was 0, the “Expression BB_T07” value (gene BB_T07, outer membrane protein) was 0 and the “Expression BB_U01” value (gene BB_U01, hypothetical protein) was 0. For the same molecule, the “Expression BB_U02” value (gene BB_U02, hypothetical protein) was 2 and the “Expression BB_U04” value (gene BB_U04, protein BBC01) was 0.
